Reference: US12643871B2, “Aryl formamide compound containing chiral sulfur oxide or salt thereof, preparation method, herbicidal composition and use thereof” (Qingdao Kingagroot Chemical Compound Co., Ltd., priority 2019, dated 2026)

Tests used:
[1] = test system: Rice; test: Transplanted rice safety evaluation; format: in vivo, rice (japonica rice/Indica rice); conditions: 60 g/ha; transplanted 3 leaf stage rice, 21 days after treatment
From the text: (§1) The activity level criteria for harmful plant damage (i.e., growth control rate) are as follows: • Level 5: growth control rate is above 85%; • Level 4: growth control rate is greater than or equal to 60% and less than 85%; • Level 3: growth control rate is greater than or equal to 40% and less than 60%; • Level 2: growth control rate is greater than or equal to 20% and less than 40%; • Level 1: growth control rate is greater than or equal to 5% and less than 20%; • Level 0: growth control rate is less than 5%.
In addition, the rice field soil that loaded into the 1/1,000,000 ha pot was leveled to keep water storage at 3-4 cm depth. The 3 leaf stage rice (japonica rice/Indica rice) was transplanted at 3 cm of transplanting depth the next day. The compound of the present invention was treated by the same way after 5 days of transplantation.
(§2) The fertility condition of Echinochloa crusgali, Scirpus juncoides, Bidens tripartita, Leptochloa chinensis, Sagittaria trifolia and Monochoria vaginalis 14 days after the treatment of the compound of the invention and the fertility condition of rice 21 days after the treatment of the compound of the invention respectively with the naked eye. Evaluate the weed control effect with 0-5 activity standard level. Many compounds show excellent activity and selectivity.

[2] = test system: Leptochloa chinensis; test: Weed control effect evaluation in rice field; format: in vivo; conditions: 60 g/ha; rice field pot, 14 days after treatment
From the text: as §1
(§3) Rice field soil was loaded into a 1/1,000,000 ha pot. The seeds of Echinochloa crusgali, Scirpus juncoides, Bidens tripartita, Sagittaria trifolia, Monochoria vaginalis and Leptochloa chinensis were sowed and gently covered with soil, then left to stand still in greenhouse in the state of 0.5-1 cm of water storage. The tuber of Sagittaria trifolia was planted in the next day or 2 days later. It was kept at 3-4 cm of water storage thereafter. The weeds were treated by dripping the WP or SC water diluents prepared according to the common preparation method of the compounds of the present invention with pipette homogeneously to achieve specified effective amount when Echinochloa crusgali, Scirpus juncoides, Bidens tripartita, Monochoria vaginalis and Leptochloa chinensis reached 0.5 leaf stage and Sagittaria trifolia reached the time point of primary leaf stage.
as §2

[3] = test system: Echinochloa crusgali; test: Weed control effect evaluation in rice field; format: in vivo; conditions: 60 g/ha; rice field pot, 14 days after treatment; ALS-inhibitor resistant weed from Heilongjiang
From the text: as §1, §3, §2

[4] = test system: Sagittaria trifolia; test: Weed control effect evaluation in rice field; format: in vivo; conditions: 60 g/ha; rice field pot, 14 days after treatment; ALS-inhibitor resistant weed from Heilongjiang
From the text: as §1, §3, §2

[5] = test system: Monochoria vaginalis; test: Weed control effect evaluation in rice field; format: in vivo; conditions: 60 g/ha; rice field pot, 14 days after treatment; ALS-inhibitor resistant weed from Heilongjiang
From the text: as §1, §3, §2

[6] = test system: Abutilon theophrasti; test: Weeding effect in post-emergence stage; format: in vivo; conditions: 250 g/ha; 2 leaf stage; 15 days after application; fresh weight control rate
Outline: (§4)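 Reported levels reflect fresh weight growth control rate banded 0 (<5%) through 5 (>85%), averaged over three repetitions. Treatment: foliar spray of 2-leaf-stage greenhouse plants at 15 to 500 g/ha, with 1.5 liter/ha methyl oleate synergist; assessment 15 days after application.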

[7] = test system: Setaria viridis; test: Weeding effect in post-emergence stage; format: in vivo; conditions: 250 g/ha; 2 leaf stage; 15 days after application; fresh weight control rate
Outline: as §4

[8] = test system: Echinochloa crusgali; test: Weeding effect in post-emergence stage; format: in vivo; conditions: 250 g/ha; 2 leaf stage; 15 days after application; fresh weight control rate
Outline: as §4

[9] = test system: Amaranthus retroflexus; test: Weeding effect in post-emergence stage; format: in vivo; conditions: 250 g/ha; 2 leaf stage; 15 days after application; fresh weight control rate
Outline: as §4

[10] = test system: Digitaria sanguinalis; test: Weeding effect in post-emergence stage; format: in vivo; conditions: 250 g/ha; 2 leaf stage; 15 days after application; fresh weight control rate
Outline: as §4

Structure (SMILES): CC[S@@+]([O-])c1c(C(F)(F)F)ccc(C(=O)Nc2nnc(C)o2)c1SC [Compound 548]
- Herbicidal effects of compounds, Rice, 0-5 activity standard level [1]: 0 (Level 0: growth control rate is less than 5%)
- Herbicidal effects of compounds, Leptochloa chinensis, 0-5 activity standard level [2]: 5 (Level 5: growth control rate is above 85%)
- Herbicidal effects of compounds, Echinochloa crusgali, 0-5 activity standard level [3]: 5 (Level 5: growth control rate is above 85%)
- Herbicidal effects of compounds, Sagittaria trifolia, 0-5 activity standard level [4]: 5 (Level 5: growth control rate is above 85%)
- Herbicidal effects of compounds, Monochoria vaginalis, 0-5 activity standard level [5]: 5 (Level 5: growth control rate is above 85%)
- weeding effect in post-emergence stage, activity level (growth control rate), Abutilon theophrasti [6]: 5 (Level 5: growth control rate is above 85%)
- weeding effect in post-emergence stage, activity level (growth control rate), Setaria viridis [7]: 5 (Level 5: growth control rate is above 85%)
- weeding effect in post-emergence stage, activity level (growth control rate), Echinochloa crusgali [8]: 5 (Level 5: growth control rate is above 85%)
- weeding effect in post-emergence stage, activity level (growth control rate), Amaranthus retroflexus [9]: 5 (Level 5: growth control rate is above 85%)
- weeding effect in post-emergence stage, activity level (growth control rate), Digitaria sanguinalis [10]: 5 (Level 5: growth control rate is above 85%)
